Source: PMC6474902, “Examination of novel 4-aminoquinoline derivatives designed and synthesized by a hybrid pharmacophore approach to enhance their anticancer activities” (Scientific Reports, 2019)
Several values for one entry are separate records, joined by “and”; a condition that tells them apart may be missing. Identical values can stand only once. Entries after “also recorded” stand apart in the source; their conditions may differ.

What was measured:
Format in all cases: cell-based, human
[1] = system: MDA-MB231, MDA-MB468, MCF7 breast cancer cells; 184B5 and MCF10A non-cancer breast cells; test: SRB assay, panel of breast cancer and non-cancer breast cell lines; conditions: judged from GI50 values of Table 1
Experimental: The antigrowth effects of 4-piperazinylquinoline sulfonyl analogs on human breast tumor cells was initially evaluated using MDA-MB468 (a PTEN defective, EGFR positive breast adenocarcioma), MDA-MB231 (p53 and pRB mutated, triple-negative breast carcinoma), and MCF7 (p53+/−, invasive ductal breast carcinoma) cell lines. In addition, the cytotoxicity of all the compounds was also evaluated with the 184B5 and MCF10A non-cancer immortalized breast epithelial cell lines, to determine if these newly synthesized compounds have differential cytotoxic effects on cancer and non-cancer cells. The panel of three breast cancer cell lines with different genetic back ground and the well-studied two non-cancer immortalized breast cell lines would provide insights into the efficacy and toxicity of the test compounds in the different genetic background and at different stages of tumor development. The dose response of each cell line was established by determining the number of viable cells after 48 h of continuous drug treatment against seven different concentrations (100 µM to 0.0064 µM) of each compound. The reading of sulphorodamine B (SRB) staining is known to accurately reflect the level of total cellular macromolecules/cell growth/proliferation[6],[23]. […] The data for CQ and cisplatin were included as references. […] The differences in the GI50 values may be attributable to such factors as the nature of the sulfonyl group and the halogen substitution on the 7th position of the 4-piperazinylquinoline ring system, and the genetic and biochemical background of the cell lines.
Antiproliferative/antigrowth effects were determined by a SRB-based protocol[6],[23]. For a typical screening experiment, 5,000–10,000 cells were inoculated into 100 µL medium per well of a 96-well microtiter plate as described previously. Briefly, after the inoculation, the microtiter plate was incubated at 37 °C, 5% CO2, 95% air and 100% relative humidity for 24 h, prior to addition of experimental drugs. Some of the sample wells were fixed with 25 µL of 50% tricholoroacetic acid (TCA) as a control of the cell population for each cell line at the time of drug addition (Tz). An aliquot of the frozen stock was thawed and diluted to a desired final maximum test-concentration with complete medium. Two to ten-fold serial dilutions were made to provide a total of seven drug concentrations (and a control [C]). Following addition of drugs, the culture plate was incubated for additional 48 h. Cells were fixed in situ by slowly adding 25 µL of ice-cold 50% (w/v) TCA (final concentration, 10% TCA), and were then incubated for 60 min at 4 °C. The supernatant was discarded, and the plate was washed five times with tap water, followed by air-dry. 50 µL of SRB solution at 0.4% (w/v) in 1% acetic acid was added to each well, and the plate was incubated for >30 min at room temperature. Unbound SRB was removed by five washes with tap water, followed by air-drying. The cells “stained” with SRB were solubilized with 10 mM trizma base, and the absorbance was read on an automated plate reader at a wavelength of 515–564 nm. The relative growth rate (%) was calculated for each of the compound concentrations according to the following formula: (Ti−Tz)/(C−Tz)×100
In the formula, time zero (Tz), control growth (C), and OD for different concentration of tested compounds (Ti). The GI50 for each compound was obtained from a non-linear Sigmoidal dose-response (variable slope) curve which is fitted by GraphPad Prism v.4.03 software. Values were calculated for each of these parameters if the level of activity was reached. However, if the effect was not reached or was exceeded, the value for that parameter was expressed as greater or less than the maximum or minimum concentration tested.

[2] = system: NCI-60 cancer panel; test: NCI-60 cancer panel screening; conditions: screening carried out by the USA National Cancer Institute
Experimental: Therefore, we examined its effects on several cellular and molecular biological aspects to gain a better understanding about its mode of function. […]
compound 13 show s effective grow th inhibition on a w ide range of cancers. Screening of compound 13 with the NCI-60 cancer panel was carried out by the USA National Cancer Institute.
(1 picture or pasted object on this page, not shown here)

[3] = system: HeLa S3 cells; test: Mitotic spindle/centrosome morphology by confocal microscopy; conditions: 5 μM, 6 h after nocodazole synchronization
Source text: To gain further insight into the cellular mechanism involved in the cell cycle arrest, we examined cell morphology in the context of mitotic progress. […] Many of these cells are apparently arrested at the spindle checkpoint stage. Even those cells undergo cell division (probably after prolonged arrest) often segregated with uneven cell sizes (arrows in Fig. 6a).
Figure 6 Compound 13 causes the formation of multiple spindle poles and uneven segregation. (a) HeLa S3 cells were synchronized at G2/M by nocodazole, followed by incubation for 6 h in drug-free medium in the absence (Sham control) or presence of 5 μM of compound 13. Note the presence of uneven cell sizes (arrows) which were likely generated as a result of nondisjuctional chromosome segregation during mitosis. […] In contrast, the untreated control sample contains very few cells with abnormal spindles.
All immunocytochemistry experiments were visualized by confocal microscopy using a Zeiss 510 Meta laser scanning microscope (Carl Zeiss) equipped with a 63× objective lens. Three lasers were utilized for excitation with the following band pass filter settings used for detection: Argon 488 nm (band pass 505–530), HeNe 543 nm (long pass 560) and 633 nm (long pass 650). All images were captured and analyzed using LSM 510 software included with the microscope (LSM Image Examiner, Carl Zeiss).

[4] = system: MCF7 cells; test: LysoTracker Red staining of lysosomal volume; conditions: 5 μM, 48 h
Experimental: (§1) Since the structure of compound 13 contains the main scaffold of CQ, we examined whether cells treated with compound 13 also results an increase in the lysosomal volume.
Figure 7 Lysosomal volumes are increased in MCF7 cells treated with compound 13. Lysomes were visualized by treating MCF7 cells with lysoTracker Red for 48 h in the absence (Sham) or presence of 5 μM compound 13. The nuclei of cells in rows a and c were visualized by staining with DRAQ5. Note that rows a, c and e are enlarged images.
(§2) LysoTracker Red sDND-99 staining was carried out as recommended by the manufacturer (Molecular Probes, Eugene, OR). Briefly, cells grown on a cover slip were incubated in 50 nM LysoTracker Red DND-99 in serum-free RPMI-1640 medium for 30 min and then rinsed once with serum-free medium. The cells were washed three times with ice-cold medium, incubated in fresh medium for 45 min at 37 °C, and then washed once with fresh medium. Subsequently, the cells were examined by fluorescence microscopy using two filters (for green and red images) sequentially. Merging the two color images was done using Northern Eclipse software.

[5] = system: MCF10A; test: LysoTracker Red staining of lysosomal volume, non-cancer cells; conditions: 5 μM, 48 h
Experimental: as §1, §2
Sham treated Compound 13 (5 μ M), 48 h
(VR23) in non- cancer MCF10A, in contrast to cancer cells (MCF7, HeLa). […]

O=[N+]([O-])c1ccc(S(=O)(=O)N2CCN(c3ccnc4cc(Cl)ccc34)CC2)c([N+](=O)[O-])c1 [Compound 13, 7-Chloro-4-(4-(2,4-dinitrophenylsulfonyl)piperazin-1-yl)quinoline]
preferential antigrowth effect on cancer versus non-cancer cells (in words) [1]: effective and preferential antigrowth effects on cancer cells; also recorded: stronger antigrowth/antiproliferation activity against cancer cells than non-cancer cells
growth inhibition in NCI-60 cancer panel (in words) [2]: effective on many different human cancers
mitotic cells with multiple centrosomes / multiple spindle phenotypes [3]: 44% and 44.4%
lysosomal volume [4]: substantial increase in lysosomal volume
lysosomal volume [5]: does not increase; also recorded: did not show the same degree of increase in lysosomal volume
